Measured values taken from the supplement of paper PMC8882468.

Columns and labels:
Assay in all cases: CTG-3D luminescence at 96 h relative to day-0 seeding control (ratio to day 0); higher = more growth / less cytotoxicity; PDxO 3D drug screen, 96 h, CTG-3D normalised to day-0 seeding control.
HCI-019 = system: HCI-019 (organoid from a triple-negative breast cancer xenograft)
HCI-015 = system: HCI-015 (organoid from a triple-negative breast cancer xenograft)
HCI-003.E2 = system: HCI-003.E2 (organoid from an ER-positive breast cancer xenograft)
HCI-016 = system: HCI-016 (organoid from a triple-negative breast cancer xenograft)
HCI-025 = system: HCI-025 (organoid from a breast cancer xenograft)
HCI-005.E2 = system: HCI-005.E2 (organoid from a breast cancer xenograft with a HER2-positive history)

COc1cccc2c1C(=O)c1c(O)c3c(c(O)c1C2=O)C[C@@](O)(C(=O)CO)C[C@@H]3O[C@H]1C[C@H](N)[C@H](O)[C@H](C)O1 [doxorubicin]
CTG-3D luminescence at 96 h
Conditions	12.5 pM	0.00025 µM	0.005 µM	0.1 µM	1 µM	10 µM	100 µM	625 fM
HCI-015, days in culture: 172	2.4	1.39	2.21	0.657	0.0852	0.0438	0.0135	2.35
HCI-015, days in culture: 191	2.38	1.36	1.43	0.382	0.0711	0.0286	0.019	1.61
HCI-015, days in culture: 218	1.76	1.38	1.98	0.575	0.0701	0.0582	0.0222	1.86
HCI-016, days in culture: 153	2.98	1.26	2.02	0.665	0.19	0.0767	0.0122	2.51
HCI-016, days in culture: 172	2.04	1.45	1.73	1.29	0.194	0.0836	0.0359	1.97
HCI-016, days in culture: 190	1.66	1.38	1.27	0.803	0.316	0.118	0.0242	1.26
HCI-016, days in culture: 199	1.35	1.52	1.53	1.33	0.159	0.232	0.0264	1.7
HCI-019, days in culture: 110	1.69	1.56	1.49	1.03	0.296	0.00454	-0.00853	1.91
HCI-019, days in culture: 131	3.03	3.8	2.31	1.47	0.314	0.00725	-0.0127	4.1
HCI-019, days in culture: 152	3.43	3.12	2.32	1.57	0.409	0.00363	-0.00918	2.03
HCI-025, days in culture: 172	2.56	1.67	2.22	1.81	0.663	-0.00377	-0.0121	2.18
HCI-025, days in culture: 209	2.17	2.18	2.33	1.37	0.406	0.0188	-0.00838	1.45
HCI-025, days in culture: 218	1.71	1.89	1.74	1.66	0.23	0.0154	-0.0116	1.66

CTG-3D luminescence at 96 h
Conditions	12.5 pM	0.00025 µM	0.005 µM	0.1 µM	1 µM	10 µM	100 µM	625 fM
HCI-003.E2	2.13	2.46	2.07	2.22	1.15	0.024	-0.00504	2.13
HCI-005.E2	1.5	1.93	1.21	1.07	0.557	-0.00289	-0.00667	1.71

C[C@]12CC[C@@H]3c4ccc(O)cc4C[C@@H](CCCCCCCCC[S+]([O-])CCCC(F)(F)C(F)(F)F)[C@H]3[C@@H]1CC[C@@H]2O (stereo not given in full) [fulvestrant]
CTG-3D luminescence at 96 h
Conditions	12.5 pM	0.00025 µM	0.005 µM	0.1 µM	1 µM	10 µM	100 µM	625 fM
HCI-015, days in culture: 172	2.41	1.73	2.32	0.904	2.25	1.34	1.39	3.06
HCI-015, days in culture: 191	1.78	1.35	1.29	1.06	1.56	1.23	1.35	1.56
HCI-015, days in culture: 218	2.19	1.3	2.13	1.72	1.77	2.1	1.76	2.24
HCI-016, days in culture: 153	2.93	2.2	2.24	2.05	2.08	2.62	1.86	2.61
HCI-016, days in culture: 172	2.46	1.77	1.97	1.54	1.72	1.14	1.63	1.6
HCI-016, days in culture: 190	1.79	1.54	1.85	1.28	1.3	0.96	1.07	1.14
HCI-016, days in culture: 199	1.92	2.05	1.9	1.67	2.19	1.62	1.44	2.07
HCI-019, days in culture: 110	2.08	1.72	1.89	2.26	1.97	2.13	1.73	1.57
HCI-019, days in culture: 131	2.86	3.69	2.72	3.98	3.13	2.98	1.94	4.13
HCI-019, days in culture: 152	2.85	3	3.24	2.41	1.37	2.3	1.6	2.94
HCI-025, days in culture: 172	3.02	1.74	3.7	1.97	1.97	1.21	2.24	2.87
HCI-025, days in culture: 209	1.87	1.6	2.26	1.66	1.8	1.4	1.23	1.44
HCI-025, days in culture: 218	1.47	1.8	1.97	1.54	1.5	1.93	1.21	1.28

CTG-3D luminescence at 96 h
Conditions	12.5 pM	0.00025 µM	0.005 µM	0.1 µM	1 µM	10 µM	100 µM	625 fM
HCI-003.E2	2.4	2.42	2.09	2.42	1.9	1.54	1.41	2.03
HCI-005.E2	1.53	2.5	1.79	2.34	1.61	1.5	1.34	1.72

Nc1ccn([C@@H]2O[C@H](CO)[C@@H](O)C2(F)F)c(=O)n1 [gemcitabine]
CTG-3D luminescence at 96 h
Conditions	12.5 pM	0.00025 µM	0.005 µM	0.1 µM	1 µM	10 µM	100 µM	625 fM
HCI-015, days in culture: 172	2.22	1.3	1.95	0.109	0.123	0.136	0.152	2.75
HCI-015, days in culture: 191	2.28	1.52	0.975	0.116	0.114	0.105	0.109	1.5
HCI-015, days in culture: 218	1.86	1.48	0.887	0.138	0.105	0.107	0.0645	1.8
HCI-016, days in culture: 153	2.99	1.91	2.52	0.96	0.509	0.286	0.0753	2.4
HCI-016, days in culture: 172	1.95	1.97	1.64	0.366	0.257	0.0907	0.0466	1.66
HCI-016, days in culture: 190	1.61	1.34	1.52	0.261	0.268	0.122	0.0539	1.21
HCI-016, days in culture: 199	1.57	1.28	1.3	0.174	0.16	0.112	0.0387	1.49
HCI-019, days in culture: 110	1.7	1.3	0.347	0.296	0.241	0.237	0.181	2.3
HCI-019, days in culture: 131	2.42	3.53	0.976	0.427	0.344	0.344	0.213	3.6
HCI-019, days in culture: 152	2.8	4.1	0.623	0.432	0.375	0.521	0.424	2.77
HCI-025, days in culture: 172	3.01	1.72	2.29	0.436	0.742	0.364	0.195	2.47
HCI-025, days in culture: 209	2.06	2.11	1.83	0.884	0.873	0.449	0.155	1.79
HCI-025, days in culture: 218	1.86	2.09	1.77	0.5	0.362	0.365	0.143	1.79

CTG-3D luminescence at 96 h
Conditions	12.5 pM	0.00025 µM	0.005 µM	0.1 µM	1 µM	10 µM	100 µM	625 fM
HCI-003.E2	2.3	2.24	1.81	1.35	1.28	1.18	0.939	2.08
HCI-005.E2	1.6	1.96	1.71	0.511	0.224	0.406	0.438	1.65

C=CC(=O)N1CCC[C@@H](n2nc(-c3ccc(Oc4ccccc4)cc3)c3c(N)ncnc32)C1 [ibrutinib]
CTG-3D luminescence at 96 h
Conditions	12.5 pM	0.00025 µM	0.005 µM	0.1 µM	1 µM	10 µM	100 µM	625 fM
HCI-015, days in culture: 172	2.54	1.92	2.32	1.06	1.37	1.14	7.09e-05	2.36
HCI-015, days in culture: 191	1.91	1.22	1.64	1.03	0.827	0.68	0.00148	1.52
HCI-015, days in culture: 218	1.88	1.37	1.76	1.6	1.4	1.33	0.00244	1.81
HCI-016, days in culture: 153	3.08	1.69	2.64	2.11	2.69	1.59	-0.00474	2.85
HCI-016, days in culture: 172	1.97	1.45	2	1.61	1.46	1.04	-0.00481	1.49
HCI-016, days in culture: 190	1.59	1.26	1.45	1.11	0.915	0.881	-0.00814	1.37
HCI-016, days in culture: 199	1.58	1.62	1.43	1.26	1.35	1.21	-0.00558	1.72
HCI-019, days in culture: 110	1.83	0.982	1.32	2.18	1.21	1.26	-0.00836	2.04
HCI-019, days in culture: 131	2.58	3.79	2.31	2.19	1.24	2.27	-0.0163	2.86
HCI-019, days in culture: 152	3.76	3.16	2.83	2.13	1.54	1.75	-0.00421	2.48
HCI-025, days in culture: 172	2.25	1.2	2.79	1.4	1.8	0.991	-0.0111	2.37
HCI-025, days in culture: 209	2.38	2.13	2.26	2.09	1.86	1.41	-0.0107	1.71
HCI-025, days in culture: 218	1.78	2.33	1.93	1.68	1.57	1.75	-0.00991	1.84

CTG-3D luminescence at 96 h
Conditions	12.5 pM	0.00025 µM	0.005 µM	0.1 µM	1 µM	10 µM	100 µM	625 fM
HCI-003.E2	2.16	2.46	2.1	1.93	1.86	0.903	-0.00322	2.1
HCI-005.E2	1.47	2	1.22	1.93	1.38	0.629	-0.00377	1.61

CN(Cc1cnc2nc(N)nc(N)c2n1)c1ccc(C(=O)N[C@@H](CCC(=O)O)C(=O)O)cc1 [methotrexate]
CTG-3D luminescence at 96 h
Conditions	12.5 pM	0.00025 µM	0.005 µM	0.1 µM	1 µM	10 µM	100 µM	625 fM
HCI-015, days in culture: 172	2.51	2.28	2.36	1.31	1.55	1.13	1.06	2.55
HCI-015, days in culture: 191	1.94	1.41	1.62	1.1	1.23	0.977	0.939	1.36
HCI-015, days in culture: 218	1.75	1.57	1.63	1.69	1.48	1.63	1.21	1.79
HCI-016, days in culture: 153	3.33	1.65	2.64	1.65	1.9	2.08	1.39	2.86
HCI-016, days in culture: 172	2.17	1.68	1.56	1.51	1.49	1.25	1.41	1.71
HCI-016, days in culture: 190	1.69	1.3	1.7	0.906	1.08	1.21	1.52	0.969
HCI-016, days in culture: 199	1.57	1.47	1.56	1.47	1.53	1.37	1.26	1.73
HCI-019, days in culture: 110	2.05	1.69	1.69	1.92	1.17	1.54	1.35	2.13
HCI-019, days in culture: 131	2.79	3.21	2.83	2.59	2.04	2.25	2.11	3.85
HCI-019, days in culture: 152	2.67	2.23	2.89	2.1	2.27	2.28	2.16	2.17
HCI-025, days in culture: 172	2.75	2.07	3.51	1.47	1.98	1.22	1.02	2.55
HCI-025, days in culture: 209	1.86	1.56	2.06	0.982	1.3	0.947	0.76	1.49
HCI-025, days in culture: 218	1.83	2	2	1.06	0.978	1.26	0.754	1.76

CTG-3D luminescence at 96 h
Conditions	12.5 pM	0.00025 µM	0.005 µM	0.1 µM	1 µM	10 µM	100 µM	625 fM
HCI-003.E2	2.32	2.47	2.09	2.12	1.83	1.9	1.64	2.12
HCI-005.E2	2.09	1.81	1.86	1.02	0.572	0.678	0.678	2.1
